Source: patent publication US5037830A, “Novel thiouracyl derivatives, pharmaceutical compositions containing them and process for preparing same” (Richter Gedeon Vegyeszeti Gyar RT, priority 1989, dated 1991)
Read-outs that look alike come from different tables or passages of the source.

Assays:
[1] = tested on: spontaneous gastric acid secretion; assay: Gastric acid secretion-inhibiting effect according to Shay's method; type: in vivo, female OFA rats; details: for Gastric acid, change / Gastric juice, change: vs control; for Gastric acid, treated: titration with 0.1N NaOH
Procedure: After being starved for 24 hours, female OFA rats weighing 130 to 160 g were orally treated with the compounds to be tested. (15 animals were used for each dose.) One hour later laparotomy and pylorus ligature were carried out under ether anaesthesia according to Shay [Gastroenterology 5, 43 (1945)]. After 5 hours the animals were killed by an overdose of ether, their stomaches were excised and the volume and acid content of the gastric juice were determined. The acid was measured by titration with 0.1N NaOH, by using Topfer's indicator.

[2] = tested on: histamine-induced gastric acid secretion; assay: Inhibition of the histamine-induced gastric acid secretion in rats; type: in vivo, male OFA rats; details: for Gastric acid, change / Gastric juice, change: vs control; for Gastric juice, treated: histamine 5 mg/kg/hour;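 for Gastric acid, treated: dosed 30 min before a 5 hour experiment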
Procedure: (§1) After being starved for 24 hours, male OFA rats weighing 250 to 320 g were anaestethized by 40% urethane (0.5 ml/100 g), then the trachea and jugular vein were cannulated (10 animals were used for each dose). A glass cannula was inserted to the stomach from the direction of the pylorus. The stomach was washed with lukewarm water and then purified by air blown through. The gastric acid secretion was induced by an infusion of histamine (5 mg/kg/hour), or pentagastrin (0.05 mg/kg/hour) or carbachol (0.01 mg/kg/hour), respectively. […]

[3] = tested on: carbachol-induced gastric acid secretion; assay: Inhibition of the carbachol-induced gastric acid secretion in rats; type: in vivo, male OFA rats; details: for Gastric acid, change / Gastric juice, change: vs control; for Gastric juice, treated: carbachol 0.01 mg/kg/hour;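 for Gastric acid, treated: dosed 30 min before a 5 hour experiment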
Procedure: as §1

[4] = tested on: necrosis induced by ethanol containing hydrochloric acid; assay: Cytoprotective effect (modified Robert's test); type: in vivo; details: for Bleedings, change: vs control
Procedure: The modified Robert's test [Gastroenterology 17, 761 (1979)] was used. The necrotizing agent (100 ml of abs. ethanol containing 2 ml of concentrated hydrochloric acid) was orally administered in a volume of 0.5 ml/100 g by 30 minutes after giving the compound to be tested. (12 animals were used for each dose.) After 1 hour the animals were killed by ether and the bleedings on the glandular part of their stomach were evaluated.

[5] = tested on: gastric ulcer after pylorus ligature; assay: Gastric ulcer-inhibiting effect in rats operated according to Shay's method; type: in vivo, female OFA rats; details: for ED50: Rattus norvegicus, po, 18 h, p.o.
Procedure: Female OFA rats starved for 24 hours weighing 150 to 160 g were used. (The animals were allowed to drink water ad libitum). The animals were orally treated with the substance to be tested and after 1 hour laparotomy and pylorus ligature according to Shay [Gastroenterology 5, 43 (1945)] were performed under ether anaesthesia. After 18 hours the number and size of ulcers formed on the membranaceous part of the stomach were examined under microscope. The evaluation was made in relation to the control group and the ED50 values were determined. The sizes of the ulcers were expressed as score values from 0.5 to 32.

[6] = tested on: reserpine-induced gastric ulcer; assay: Inhibition of the reserpine-induced gastric ulcer; type: in vivo, female OFA rats; details: for ED50: Rattus norvegicus, po, 18 h, p.o., reserpine 5 mg/kg s.c.
Procedure: After being starved for 24 hours, female OFA rats were orally treated with the compounds to be tested and then subcutaneously (s.c.) with 5 mg/kg of reserpine after 1 hour. After 18 hours the animals were killed and their stomach were examined under microscope. The evaluation was performed as described under the preceding paragraph 1.

[7] = tested on: indomethacin-induced gastric ulcer; assay: Inhibition of the indomethacin-induced gastric ulcer; type: in vivo, female RG-Wistar rats
Procedure: After being starved for 24 hours, female RG-Wistar rats were orally treated with the compounds to be tested and then orally with 20 mg/kg of indomethacin after 30 minutes. The evaluation was carried out in relation to the control group and the ED50 values were determined.

[8] = tested on: gastric ulcer induced by Aspirin plus stress; assay: Inhibition of the gastric ulcer induced by Aspirin plus stress; type: in vivo, female RG-Wistar rats
Procedure: After being starved for 24 hours, female RG-Wistar rats weighing 120 to 150 g were orally treated with the compound to be tested and then orally with Aspirin. The animals were sensitized by the aspirin pretreatment and a strong ulceration was induced in the glandular part of stomach of the animals by a subsequent stress (fastening, ducking in water of 22° C. temperature). The ulceration was evaluated as score values from 0 to 2.

Acute toxicity, mouse = details: in vivo
Procedure: (§2) These investigations were carried out in OFI mice and OFA rats after starving for 24 hours. Ten animals were used for each dose. The number of doses was 3 or 4.

Acute toxicity, rat = details: in vivo
Procedure: as §2

[9] = read-out: ED50 related to the number of ulcers
[10] = read-out: ED50 related to the occurrance of ulcers
[11] = read-out: ED50 related to the severity of ulcers

Cc1cc(=O)[nH]c(SCc2ccccc2N(C)C)n1 [Example 1, 2-(2-dimethylaminobenzyl)thio-6-methyl-4(3H)-pyrimidinone]
Gastric juice, treated ([1]; 10 mg/kg p.o.): 6.76 mL | Gastric acid, change ([1]; 10 mg/kg p.o.): -28.2% | Gastric juice, change ([1]; 10 mg/kg p.o.): -10.6% | Gastric acid, treated ([1]; 10 mg/kg p.o.): 2.45 mL | Gastric juice, treated ([1]; 20 mg/kg p.o.): 6.15 mL | Gastric acid, change ([1]; 20 mg/kg p.o.): -65.1% | Gastric juice, change ([1]; 20 mg/kg p.o.): -12.9% | Gastric acid, treated ([1]; 20 mg/kg p.o.): 1.17 mL | Gastric juice, treated ([1]; 40 mg/kg p.o.): 4.51 mL | Gastric acid, change ([1]; 40 mg/kg p.o.): -92.4% | Gastric juice, change ([1]; 40 mg/kg p.o.): -34.4% | Gastric acid, treated ([1]; 40 mg/kg p.o.): 0.22 mL | inhibitor effect on gastric acid secretion, in words ([1]; compared with reference drugs): equiactive to the NC-1300 reference drug | ED50 ([1]; po, gastric acid, Shay rat): 15 mg/kg | Gastric acid, treated ([2]; 6.25 mg/kg i.p.): 3.41 mL | Gastric acid, change ([2]; 6.25 mg/kg i.p.): -42% | Gastric juice, change ([2]; 6.25 mg/kg i.p.): -44% | Gastric juice, treated ([2]; 6.25 mg/kg i.p.): 2.14 mL | Gastric acid, treated ([2]; 12.5 mg/kg i.p.): 1.90 mL | Gastric acid, change ([2]; 12.5 mg/kg i.p.): -68% | Gastric juice, change ([2]; 12.5 mg/kg i.p.): -64% | Gastric juice, treated ([2]; 12.5 mg/kg i.p.): 1.38 mL | Gastric acid, treated ([2]; 25 mg/kg i.p.): 0.66 mL | Gastric acid, change ([2]; 25 mg/kg i.p.): -89% | Gastric juice, change ([2]; 25 mg/kg i.p.): -87% | Gastric juice, treated ([2]; 25 mg/kg i.p.): 0.49 mL | ED50 ([2]; Rattus norvegicus, ip, histamine-induced, dose column i.p.): 6.8 mg/kg | Gastric acid, treated ([3]; 12.5 mg/kg i.p.): 2.14 mL | Gastric acid, change ([3]; 12.5 mg/kg i.p.): -22% | Gastric juice, change ([3]; 12.5 mg/kg i.p.): -20% | Gastric juice, treated ([3]; 12.5 mg/kg i.p.): 1.65 mL | Gastric acid, treated ([3]; 20 mg/kg i.p.): 0.90 mL | Gastric acid, change ([3]; 20 mg/kg i.p.): -67% | Gastric juice, change ([3]; 20 mg/kg i.p.): -66% | Gastric juice, treated ([3]; 20 mg/kg i.p.): 0.71 mL | Gastric acid, treated ([3]; 25 mg/kg i.p.): 0.37 mL | Gastric acid, change ([3]; 25 mg/kg i.p.): -87% | Gastric juice, change ([3]; 25 mg/kg i.p.): -83% | Gastric juice, treated ([3]; 25 mg/kg i.p.): 0.34 mL | ED50 ([3]; Rattus norvegicus, ip, carbachol-induced, dose column i.p.): 16.5 mg/kg | Bleedings, treated ([4]; 10 mg/kg p.o.): 62.0 mm | Bleedings, change ([4]; 10 mg/kg p.o.): -38.7% | Bleedings, treated ([4]; 20 mg/kg p.o.): 42.1 mm | Bleedings, change ([4]; 20 mg/kg p.o.): -56.9% | Bleedings, treated ([4]; 40 mg/kg p.o.): 10.9 mm | Bleedings, change ([4]; 40 mg/kg p.o.): -89.6% | ED50 ([4]; po, cytoprotection): 14.5 mg/kg | ED50 [5, 9]: 3.3 mg/kg | ED50 [5, 10]: 9 mg/kg | ED50 [5, 11]: 3.7 mg/kg | ulcer inhibition, in words ([5]; compared with reference drugs): significantly stronger inhibited | ED50 [6, 9]: 16 mg/kg | ED50 [6, 10]: 18 mg/kg | ED50 [6, 11]: 15 mg/kg | ulcer inhibition, in words ([6]; compared with reference drugs): significantly stronger inhibited | ED50 ([7]; Rattus norvegicus, po, indomethacin 20 mg/kg orally): 8.2 mg/kg | ulcer inhibition, in words ([7]; compared with reference drugs): significantly stronger inhibited | ED50 ([8]; Rattus norvegicus, po, Aspirin plus stress): 7.3 mg/kg | ulcer inhibition, in words ([8]; compared with reference drugs): significantly stronger inhibited | LD50 (Acute toxicity, mouse; ip, female mouse): 365 mg/kg | LD50 (Acute toxicity, mouse; ip, male mouse): 360 mg/kg | LD50 (Acute toxicity, mouse; po, female mouse, precision restricted by solubility): > 1000 mg/kg | LD50 (Acute toxicity, mouse; po, male mouse, precision restricted by solubility): > 1000 mg/kg | LD50 (Acute toxicity, rat; ip, female rat): 430 mg/kg | LD50 (Acute toxicity, rat; ip, male rat): 450 mg/kg | LD50 (Acute toxicity, rat; po, female rat, precision restricted by solubility): 2400 mg/kg | LD50 (Acute toxicity, rat; po, male rat, precision restricted by solubility): > 3000 mg/kg
